# Tests used:
# [1] = molecular target: T1, Mitogen-activated protein kinase 15 (Homo sapiens) (UniProt Q8TD08); assay: Selectivity interaction (KinomeScan (DiscoverX)) EUB0001619a MAPK15; details: at 1 µM
# T1 sequence (whole entry): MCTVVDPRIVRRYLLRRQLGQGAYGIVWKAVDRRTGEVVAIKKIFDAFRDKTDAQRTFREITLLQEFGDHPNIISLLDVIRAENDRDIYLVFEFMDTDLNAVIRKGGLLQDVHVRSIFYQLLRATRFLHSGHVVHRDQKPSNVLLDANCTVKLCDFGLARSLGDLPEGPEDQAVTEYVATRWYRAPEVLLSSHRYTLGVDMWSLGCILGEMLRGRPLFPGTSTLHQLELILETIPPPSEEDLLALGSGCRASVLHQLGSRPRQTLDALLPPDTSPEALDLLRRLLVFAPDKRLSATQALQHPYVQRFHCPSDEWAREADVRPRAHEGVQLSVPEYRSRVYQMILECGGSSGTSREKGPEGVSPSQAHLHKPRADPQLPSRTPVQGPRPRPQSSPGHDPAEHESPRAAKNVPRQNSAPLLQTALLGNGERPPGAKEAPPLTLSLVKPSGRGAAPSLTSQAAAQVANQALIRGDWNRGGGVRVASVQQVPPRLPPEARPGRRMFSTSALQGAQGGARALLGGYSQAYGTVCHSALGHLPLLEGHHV
# [2] = molecular target: T2, Histone-arginine methyltransferase CARM1 (Homo sapiens) (UniProt Q86X55); details: U-266, at 3 µM
# T2 sequence (whole entry): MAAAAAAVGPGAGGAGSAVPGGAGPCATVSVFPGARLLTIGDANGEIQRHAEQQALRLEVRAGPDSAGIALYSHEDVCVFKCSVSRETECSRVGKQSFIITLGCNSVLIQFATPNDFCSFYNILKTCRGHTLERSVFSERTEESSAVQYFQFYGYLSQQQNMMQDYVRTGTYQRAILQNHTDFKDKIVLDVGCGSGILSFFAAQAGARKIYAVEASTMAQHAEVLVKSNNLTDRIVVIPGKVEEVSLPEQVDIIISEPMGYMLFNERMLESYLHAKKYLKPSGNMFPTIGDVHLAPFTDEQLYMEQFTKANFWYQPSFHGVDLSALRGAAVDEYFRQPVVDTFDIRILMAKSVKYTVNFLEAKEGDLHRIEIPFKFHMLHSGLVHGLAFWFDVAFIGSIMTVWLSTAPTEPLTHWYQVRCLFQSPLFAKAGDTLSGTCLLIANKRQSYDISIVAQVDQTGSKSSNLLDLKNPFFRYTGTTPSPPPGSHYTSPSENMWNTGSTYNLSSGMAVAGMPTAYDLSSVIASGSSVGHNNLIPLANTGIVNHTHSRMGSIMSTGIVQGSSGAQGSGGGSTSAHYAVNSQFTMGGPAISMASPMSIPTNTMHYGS
# [3] = molecular target: T3, Non-receptor tyrosine-protein kinase TNK1 (Homo sapiens) (UniProt Q13470); assay: Selectivity interaction (KinomeScan (DiscoverX)) EUB0000229b TNK1; details: at 10 µM
# T3 sequence (whole entry): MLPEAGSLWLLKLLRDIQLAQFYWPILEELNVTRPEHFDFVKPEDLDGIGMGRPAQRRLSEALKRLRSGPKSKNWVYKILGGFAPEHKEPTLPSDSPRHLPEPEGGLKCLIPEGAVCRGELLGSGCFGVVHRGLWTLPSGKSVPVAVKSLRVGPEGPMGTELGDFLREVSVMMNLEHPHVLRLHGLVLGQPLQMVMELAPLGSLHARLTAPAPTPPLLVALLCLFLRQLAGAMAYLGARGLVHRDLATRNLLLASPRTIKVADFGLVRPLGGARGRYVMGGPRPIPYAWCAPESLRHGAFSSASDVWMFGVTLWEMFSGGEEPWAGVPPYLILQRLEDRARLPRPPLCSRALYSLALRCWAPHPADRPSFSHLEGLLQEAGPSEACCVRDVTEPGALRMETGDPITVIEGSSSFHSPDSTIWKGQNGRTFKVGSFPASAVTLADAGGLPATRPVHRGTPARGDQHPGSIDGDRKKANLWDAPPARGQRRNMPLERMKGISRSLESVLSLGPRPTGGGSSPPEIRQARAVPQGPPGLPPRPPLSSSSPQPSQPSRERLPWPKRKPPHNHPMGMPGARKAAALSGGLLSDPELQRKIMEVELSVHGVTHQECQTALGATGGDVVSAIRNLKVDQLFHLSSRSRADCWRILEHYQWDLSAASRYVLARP
# [4] = molecular target: T4, Muscarinic acetylcholine receptor M1 (Homo sapiens) (UniProt P11229); assay: Selectivity interaction (Safety Panel 44tm (Eurofins)) EUB0000162b CHRM1; details: at 10 µM
# T4 sequence (whole entry): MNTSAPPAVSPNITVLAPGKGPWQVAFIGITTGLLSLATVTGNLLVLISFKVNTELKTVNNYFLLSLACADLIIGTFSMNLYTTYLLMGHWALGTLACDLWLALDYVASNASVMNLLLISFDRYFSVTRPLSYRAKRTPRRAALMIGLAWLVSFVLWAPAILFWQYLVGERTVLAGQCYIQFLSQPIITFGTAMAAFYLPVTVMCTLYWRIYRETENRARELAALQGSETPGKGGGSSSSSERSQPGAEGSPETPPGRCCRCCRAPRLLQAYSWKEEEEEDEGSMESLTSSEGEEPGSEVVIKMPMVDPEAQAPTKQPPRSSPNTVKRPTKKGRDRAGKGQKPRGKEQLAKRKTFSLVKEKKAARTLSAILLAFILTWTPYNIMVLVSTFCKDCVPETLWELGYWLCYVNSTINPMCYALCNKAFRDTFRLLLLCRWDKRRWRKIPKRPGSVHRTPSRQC
# [5] = molecular target: Leukocyte tyrosine kinase receptor (Homo sapiens, UniProt P29376); assay: Selectivity interaction (KinomeScan (DiscoverX)) EUB0000666a LTK; details: at 10 µM
# [6] = molecular target: T5, Calcium/calmodulin-dependent protein kinase type IV (Homo sapiens) (UniProt Q16566); assay: Selectivity interaction (KinomeScan (DiscoverX)) EUB0000666a CAMK4; details: at 10 µM
# T5 sequence (whole entry): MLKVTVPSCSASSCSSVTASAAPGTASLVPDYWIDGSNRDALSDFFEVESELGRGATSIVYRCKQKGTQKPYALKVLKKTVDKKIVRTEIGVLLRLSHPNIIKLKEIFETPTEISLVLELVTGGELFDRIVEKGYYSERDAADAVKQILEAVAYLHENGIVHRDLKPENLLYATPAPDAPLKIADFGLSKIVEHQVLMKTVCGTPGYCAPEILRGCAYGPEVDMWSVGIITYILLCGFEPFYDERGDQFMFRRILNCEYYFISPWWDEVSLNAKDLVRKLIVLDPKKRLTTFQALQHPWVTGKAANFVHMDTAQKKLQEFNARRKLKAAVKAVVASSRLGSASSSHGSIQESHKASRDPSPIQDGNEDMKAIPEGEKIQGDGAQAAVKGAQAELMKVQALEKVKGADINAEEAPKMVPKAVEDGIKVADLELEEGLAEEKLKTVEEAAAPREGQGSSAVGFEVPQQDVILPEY
# [7] = Selectivity interaction (KinomeScan (DiscoverX)) EUB0000092b CDPK1; details: at 10 µM
# Leukocyte tyrosine kinase receptor, sequence (P29376 whole entry): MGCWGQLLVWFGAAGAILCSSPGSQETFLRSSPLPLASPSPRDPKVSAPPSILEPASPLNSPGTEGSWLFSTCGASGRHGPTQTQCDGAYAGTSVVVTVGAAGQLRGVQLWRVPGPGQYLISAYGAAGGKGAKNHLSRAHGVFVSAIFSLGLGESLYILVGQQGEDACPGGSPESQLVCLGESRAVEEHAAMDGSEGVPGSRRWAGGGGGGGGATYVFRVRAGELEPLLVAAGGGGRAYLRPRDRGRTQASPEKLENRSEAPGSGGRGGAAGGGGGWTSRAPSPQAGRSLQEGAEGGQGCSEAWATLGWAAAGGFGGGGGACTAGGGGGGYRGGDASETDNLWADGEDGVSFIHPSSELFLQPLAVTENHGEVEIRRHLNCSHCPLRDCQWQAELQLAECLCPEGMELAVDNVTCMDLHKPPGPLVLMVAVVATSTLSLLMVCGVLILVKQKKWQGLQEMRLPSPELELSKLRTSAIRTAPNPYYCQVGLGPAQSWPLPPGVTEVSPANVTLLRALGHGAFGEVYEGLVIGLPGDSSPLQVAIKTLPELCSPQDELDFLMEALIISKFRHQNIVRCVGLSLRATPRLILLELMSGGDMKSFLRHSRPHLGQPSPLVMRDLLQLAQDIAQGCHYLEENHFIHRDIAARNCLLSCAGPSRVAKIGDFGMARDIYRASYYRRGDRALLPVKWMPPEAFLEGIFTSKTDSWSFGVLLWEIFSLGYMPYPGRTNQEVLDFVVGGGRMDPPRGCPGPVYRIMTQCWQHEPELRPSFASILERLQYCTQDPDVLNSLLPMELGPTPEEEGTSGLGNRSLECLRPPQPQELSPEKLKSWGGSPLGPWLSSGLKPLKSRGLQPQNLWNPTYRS
smiles,measurement,setting,value
N#Cc1cccc(-c2c[nH]c3ncnc(N4CCOCC4)c23)c1,% of control,[1],56%
CNCCN1CCC(c2cc(CN(C)C(=O)c3cccc(Oc4ccccc4)c3)ccn2)CC1,% of growth rate,[2],-24.4%
COc1cc(N(C)c2ccnc3ccc(C(F)(F)F)cc23)cc(OC)c1OC,% binding,[3],63%
CN(C)C(=O)Cn1cc(-c2ccc(-c3cncc4ccccc34)cc2)cn1,% of control,[4],87%
O=C(NOC[C@H](O)CO)c1ccc(F)c(F)c1Nc1ccc(I)cc1F,% of control,[5],100%
same,% of control,[6],100%
CCC(=O)N1CCN(c2ccc(-n3c(=O)ccc4cnc5ccc(-c6cnc7ccccc7c6)cc5c43)cc2C(F)(F)F)CC1,% of control,[7],36%

# From ChEMBL document CHEMBL5465560, “Selectivity Literature for EUbOPEN Chemogenomic Library” (2024)
